# Reference: patent US20200072837A1, “METHODS FOR PREVENTING, MODULATING AND/OR REDUCING CARDIOVASCULAR DISEASE” (OP-T LLC, priority 2018, published 2020)
# Experiments:
# NOD mice [1] = experiment: Development of diabetes in NOD mice treated with CD154 peptides; assay type: in vivo, mouse; conditions: weekly iv injection from 6 weeks of age, diabetic = blood glucose above 250 mg/dL on 3 consecutive measures
# Description: (§1) Peptides were designed based on the amino acid sequence of mouse CD154 protein (SEQ ID NO:1) in the SwissPro database. […] Weekly after the initial injection, another 100 ug of peptide (or 100 ul of saline in the case of the Control mice) was injected into the tail vein. At 10 weeks of age, mice were monitored for diabetes, as indicated by a blood glucose level greater than 250 mg/dL for three consecutive days. During this time, blood was also taken from the tail vein, or by sub-mandibular venal puncture, and the level of CD4+ and CD8+ cells determined by flow cytometry using antibodies for CD4 protein and CD8 protein.
# NOD mice at 6 weeks of age were injected weekly iv with 25 ug (1 mg/kg) of each peptide through 45 weeks. Each cohort included 10 animals. Blood glucoses were measured and levels at 250 mg/dl or higher for 3 consecutive measures were considered diabetic. […] (This is showing in FIG. 1).
# CD40+ T-cells = experiment: Binding of FITC-labeled 15-mer peptide to Th40 cells, flow cytometry; set-up: species or system mouse; conditions: lymphocytes of 9 week old NOD mice
# Description: Total lymphocytes were isolated from 9 week old NOD mice. The lymphocytes were incubated with […], anti-CD8, and an FITC-labeled 15-mer peptide, and then analyzed by flow cytometry. Cells were gated for CD4 (both CD4hi and CD4lo populations were included) and CD4 versus the 15-mer peptide.
# blood cells = experiment: Binding of biotin-conjugated 15-mer peptide to whole blood cells of type-I diabetic and control subjects; set-up: species or system human; conditions: type-I diabetes patients versus non-diabetic controls, absorbance at 405 nm
# Description: 1 ml of whole blood was obtained from each individual and incubated with biotin-conjugated, 15-mer peptide. The cells were then exposed to horseradish peroxidase (HRP)-avidin, washed and the absorbance at 405 nm determined using a spectrophotometer.
# NOD mice [2] = experiment: Insulin granulation of pancreas in NOD mice after reversal of hyperglycemia; assay type: in vivo, mouse; conditions: six weeks after reversal of hyperglycemia, versus irrelevant peptide
# Description: (§2) At the onset of diabetes, six NOD mice were injected with 100 ug/ml of the 15-mer peptide (SEQ ID NO:9), resulting in the reversal of hyperglycemia in 80% of the recipients. Six weeks after reversal of hyperglycemia, mice were sacrificed and the pancreas removed for analysis. The pancreas was fixed, sectioned and then stained using an aldehyde/fuschsin stain that allows detection of insulin granules. Granulation of the tissue was scored as follows: 4=completely granulated; 3=75% of islet granulated; 2=50% of islet granulated, and peri-insulitis; 1=25% of islet granulated; 0=no insulin granules detected.
# NOD mice [3] = experiment: CD4/CD8 ratio in blood of peptide-treated NOD mice by flow cytometry; assay type: in vivo, mouse
# Description: as §1
# ApoE deficient mice = experiment: Atherosclerosis in ApoE deficient mice on normal chow, aortic arch analysis; assay type: in vivo, mouse
# Description: ApoE deficient mice on a normal chow diet were selected to receive a dose of 1 mg/kg of the 15-mer peptide (SEQ ID NO: 7) by IV tail injection, three times a week over a period of […], beginning at 9 weeks of age and also utilized a control. At 25 weeks, the animals were euthanized, weighed, and then had blood, spleen, and pancreas removed for analysis. The subjects were then perfused through cardiac puncture with 4% paraformaldehyde. Aortic arches were dissected, dehydrated in sucrose gradient and then flash frozen.
# FIG. 17 provides an example of the lesser curvature of the aortic arch, defined proximally from the aortic outflow (AO). Of the segments seen in the trichrome stain, an intimal distance of […] was measured distally. The aortic-arch wall area subtended by this 2.5 mm stretch of the intima was calculated for each section of all mice, with maximal area of the inner-aortic-arch wall of each mouse used to compute averages per group. The luminal surface (L), aortic arch (AO), and innominate artery (I) are labelled in this FIG. 17.
# Plaque was subdivided based on morphology of early lesions (observable as fatty streaks containing macrophage derived foam cells with varying degrees of lipid accumulation) compared with more advanced fibroatheromas (containing varying degrees of lipid or necrotic core and fibrous caps). All plaque within the designated 2.5 mm segment were included.
# NOD mice [4] = experiment: Reversal of hyperglycemia in already diabetic NOD mice; assay type: in vivo, mouse
# Description: Six mice from that had received the 6-mer peptide in Example 1, and that had subsequently developed diabetes, were injected intravenously with 100 ug of the 15-mer peptide. These mice were then given weekly injections of the 15-mer peptide into their tail veins, and their blood glucose levels monitored twice-weekly. The 15-mer peptide was administered for a total of ten weeks, after which the treatment was stopped.
# as §2
# [5] = Clot study in whole human blood; conditions: dosing levels similar to murine studies
# Description: Whole human blood was administered the peptide in accordance with similar dosing levels to those used for murine studies.
# ApoE-/- mice [6] = experiment: Existing atherosclerotic disease in ApoE-/- mice, 4 weeks of treatment, plaque morphology; assay type: in vivo, mouse
# Description: In this study, six ApoE−/− mice received a normal chow diet from 0 to 20 weeks of age. At 20 weeks of age, three mice were randomly assigned to receive dose of 1 mg/kg of KGYY15 (15-mer—SEQ ID NO:7) by IV tail injection, once a week for a period of 4 weeks. Control mice received vehicle only. After 4 weeks of treatment, animals were euthanized then perfused through cardiac puncture with 4% paraformaldehyde. Aortic arches were dissected in surcrose gradient and flash frozen. Approximately fifty, […] longitudinal sections were obtained per mouse. Slides were treated with trichrome stain and analyzed using cellSens software for measurements. Total plaque was measured including 2.5 mm lesser curvature and innominate artery.
# B cells = experiment: Binding of FITC-labeled 15-mer peptide to B cells, flow cytometry; set-up: species or system mouse; conditions: B cells from spleens of NOD mice, 90% CD40 positive
# Description: B cells were isolated from the spleens of NOD mice. Sorted MHC-II+ cells were purified from total lymphocytes. Cells were stained with FITC-labeled 15 mer peptide, anti-CD40, and B cell markers CD19 and CD21. MHC-II+ cells were gated for CD19+ and CD21+ and then 15-mer peptide versus CD40 antibody was measured.
# ApoE-/- mice [7] = experiment: Atherosclerotic changes in ApoE-/- mice on high fat diet (en-face Sudan IV, Paigen method, trichrome); assay type: in vivo, mouse
# Description: ApoE−/− mice were fed a high fat diet for 16 weeks. Mice were randomly assigned to receive dose of 1 mg/kg of KGYY6 (6-mer—SEQ ID NO:4) by IV tail injection, once a week for a period of 4 weeks. Control mice received vehicle only. Atherosclerosis was investigated by several methods. […] FIG. 28A is an image of KGYY6 treated aortic en-face Sudan IV staining and FIG. 28B is an image of control (untreated) aortic en-face Sudan staining.
# Further, measurement of plaque area and morphology was performed using the Paigen method. This method obtains sequential 5 um aortic cross sections from the aortic root beginning at the valve leaflets into the ascending aorta. At 50 um intervals, slides are stained after which the area of atherosclerotic lesion is measured. Individual plaque area measurements are plotted against the micrometer intervals and a curve is established, with the area under the curve (AUC) giving the total volume of plaque.
# ApoE−/−mice (n=16, 4 male and 4 female per group), fed a 60% high fat diet (Research Diets) for 16 weeks. 8 mice were injected with 1 mg/kg KGYY6 and […] with vehicle alone. Glucose tolerance testing (GTT) was performed by fasting 6 hours, followed by intraperitoneal injection of 1 g/kg body weight glucose in water. Both blood glucose and serum insulin were measured at 0, 15 min, 30 min, 60 min and 2 hours.
# ApoE-/- mice [8] = experiment: LDL cholesterol in ApoE-/- mice; assay type: in vivo, mouse; conditions: 1 mg/kg IV once a week for 4 weeks, treated versus untreated
# Description: In this study, six ApoE−/− mice received a normal chow diet from 0 to 20 weeks of age. At 20 weeks of age, three mice were randomly assigned to receive dose of 1 mg/kg of KGYY6 (6-mer—SEQ ID NO:4) by IV tail injection, once a week for a period of 4 weeks. Control mice received vehicle only.
# [9] = test system: CD3+CD4+CD40+ splenic cells (Th40 cells); experiment: In vitro cytokine production of splenic Th40 cells, flow cytometry; assay type: cell-based, mouse; conditions: splenic lymphocytes of ApoE and C57BL/6 mice, overnight with varying concentrations of peptide
# Description: Spleens from ApoE mice and C57BL/6 mice were processed for lymphocytes. ApoE−/− and C57BL/6 mice were fed a 60% high fat diet (research diet) for 1 week. Splenic lymphocytes were treated with 6-mer in vitro for 24 hours. Cells were placed in media overnight in the presence of varying concentrations of 6-mer peptides. The following morning, Brefeldin A was administered for 4 hours. All cells were stained for CD3, CD4, CD40 (Th40 cells) and measured by use of flow cytometry for their production of IL2, INFγ, and IL17a.
# Spleens from ApoE mice and C57BL/6 mice were processed for lymphocytes, placed in media overnight in the presence of varying concentrations of KGYY6 peptide. BrefeldinA was administered for four hours.
# [10] = 1 mg/kg IV once a week for 4 weeks
# [11] = trichrome staining, Image Pro Plus analysis
substance,measurement,setting,value
VLQWAKKGYYTMK [13-mer],development / onset of diabetes,NOD mice [1],significant effects on the development of diabetes
"VLQWAKKGYYTMKSN (VLQWAKKGYYTMKSK) [15-mer, 15-mer peptide from mouse CD154]",CD40+ T-cells that bind the peptide,CD40+ T-cells,90%
same,peptide binding activity of blood cells,blood cells,higher 15-mer peptide binding activity than cells from non-diabetic controls
same,development / onset of diabetes,NOD mice [1],prevented the onset of diabetes
same,development / onset of diabetes,NOD mice [1]; listed as KGYY15,prevents diabetes onset in NOD mice
same,insulin granulation of the pancreas,NOD mice [2],preserved insulin granules in the majority of the mice
same,compromise of the immune system as determined by the CD4/CD8 ratio,NOD mice [3],did not result in compromise of the immune system
same,atherosclerosis,ApoE deficient mice; 1 mg/kg IV three times a week,abrogates atherosclerosis
same,total area of the 2.5 mm segment of the lesser curvature of the aortic arch,ApoE deficient mice; 1 mg/kg IV three times a week from 9 weeks of age,substantially reduced
same,total number of plaque,"ApoE deficient mice; 1 mg/kg IV three times a week, plaque within 2.5 mm segment",significantly decreased
same,reversal of hyperglycemia,"NOD mice [4]; already diabetic NOD mice, 100 ug iv weekly for ten weeks",can reverse hyperglycemia
same,return of hyperglycemia after cessation of the treatment,"NOD mice [4]; diabetic NOD mice, treatment stopped after ten weeks",≤ 7 weeks
same,recipients with reversal of hyperglycemia,NOD mice [4]; six NOD mice injected at onset of diabetes,80%
same,clotting of whole human blood,[5],does not modify or change the clotting of whole human blood significantly outside of normally recognized levels
same,average cap width (cap size),ApoE-/- mice [6]; [10],greater
same,average core width (core size/plaque size),ApoE-/- mice [6]; [10],decreased
same,cap to core ratio of advanced plaques,ApoE-/- mice [6]; [10],reduced
same,number of individual early plaques and advanced plaques,ApoE-/- mice [6]; 1 mg/kg IV once a week for 4 weeks from 20 weeks of age,reduced
same,B cells that bound the peptide,B cells,8%
KKGYYT [KGYY6],development / onset of diabetes,NOD mice [1],prevents diabetes onset in NOD mice
same,"lesion areas, en-face Sudan IV stain","ApoE-/- mice [7]; ApoE-/- mice, high fat diet 16 weeks, 1 mg/kg IV once a week for 4 weeks",significant reduction in lesion areas
same,"plaque volume (area under the curve), Paigen method","ApoE-/- mice [7]; ApoE-/- mice, high fat diet, aortic root cross sections",reduction in plaque volume under the curve
same,plaque composition: collagen,ApoE-/- mice [7]; [11],increased collagen
same,plaque composition: smooth muscle content,ApoE-/- mice [7]; [11],reduced smooth muscle content
same,reduction in LDL cholesterol values,ApoE-/- mice [8],> 50%
same,production of IFNg,[9],varying degrees of reduction
same,production of IL2,[9],varying degrees of reduction
same,production of IL17a,[9],varying degrees of reduction
